{
  "source": "patent EP0363589A2",
  "about": "“Somatostatin analogues” (SYNTEX (U.S.A.) INC., priority 1988, dated 1990)",
  "key": {"[1]": {"tested_on": "insulin-induced glucagon release", "test": "Insulin-induced glucagon assay", "type": "in vivo", "details": "derived from the glucagon and insulin assays in rats", "protocol": "After several days of acclimatization, rats were weigh-grouped and used on the succeeding one to three days. The rats were injected subcutaneously with 40 mg/kg pentobarbitol(Nembutal). Approximately 30 minutes after injection, the jugular and the hepatic portal veins were exposed and an injection of 0.1% bovine serum albumin (BSA)-saline vehicle or 1 IU/1 ml/kg porcine insulin in the same vehicle was administered into the jugular vein. At precisely 15 minutes after the intravenous (i.v.)injection a 1 ml blood sample was collected from the hepatic portal vein and the rat sacrificed with C02.\nThe blood sample was collected into a syringe containing 0.70 mg Na-EDTA and 0.1 mg Aprotinin, a commercially available protease inhibitor, in 0.1 ml 0.9% saline. The blood sample was mixed in the syringe and transferred to a plastic microcontainer serum-separator tube and held in the dark on ice. Plasma was harvested within 6 hours by centrifugation and stored at -20°C. The test material was administered intramuscularly to the animal immediately prior to the i.v. injection of insulin. Plasma samples were analyzed for levels of glucagon using a commercially available radioimmuneassay kit for animal glucagon (Cambridge Medical Technology). […]"}, "[2]": {"tested_on": "growth hormone", "test": "Nembutal-induced growth hormone assay", "type": "in vivo, male rats", "details": "derived from the growth hormone and insulin assays in rats", "protocol": "After several days of acclimatization, male rats were weight-grouped and used on the succeeding one to three days. The rats were fasted the day prior to use. Each test rat was given an intramuscular (IM) injection of test compound or vehicle (0.1 % BSA-saline) into the right rear leg.\nImmediately following the IM injection, a subcutaneous injection of Nembutal (60 mg/kg) was given. Thirteen minutes after Nembutal administration, each rat was exposed to 2 minutes of ether anesthesia followed by the collection of a 1 ml blood sample via the ocular orbit. Serum separator tubes were used to prepare serum from the blood samples. The serum samples were stored at -20°C until analysis by radioimmune assay. The mean percent inhibition of growth hormone was determined for the test compounds using the method as described in Examples 4 and 5 and the EDso derived."}},
  "data": [
    {"substance": "Sandostatin", "values": [
      {"measurement": "Relative selectivities for glucagon/insulin", "setting": "[1]", "value": 11},
      {"measurement": "Relative selectivities for growth hormone/insulin", "setting": "[2]", "value": 103}
    ]}
  ]
}
